Source: ChEMBL document CHEMBL1201862, “PubChem BioAssay data set” (2004)
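Values below derive from 48-hour exposures of cells grown in 96-well plates, with endpoints linearly interpolated between the two concentrations bracketing the appropriate inhibition level. Here, GI50 denotes the concentration required for 50% inhibition of growth.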 The source made the active and inactive calls. No stated cut-off is given here; in the data, active = GI50 up to about 1.1 µM and inactive = higher.

Experiments:
Test in all cases: NCI tumour cell line growth inhibition, 48 h
[1] = tested on: M14
[2] = tested on: EKVX
[3] = tested on: SR
[4] = tested on: LOX IMVI
[5] = tested on: TK-10
[6] = tested on: ACHN
[7] = tested on: LXFL 529
[8] = tested on: Malme-3M
[9] = tested on: SF-268
[10] = tested on: NCI-H522
[11] = tested on: CAKI-1
[12] = tested on: NCI-H226
[13] = tested on: COLO 205
[14] = tested on: SNB-78
[15] = tested on: UACC-257
[16] = tested on: HOP-92
[17] = tested on: DLD-1
[18] = tested on: SK-MEL-28
[19] = tested on: OVCAR-4
[20] = tested on: M19-MEL
[21] = tested on: HL-60
[22] = tested on: CCRF-CEM
[23] = tested on: NCI-H460
[24] = tested on: SK-MEL-2
[25] = tested on: HCT-15
[26] = tested on: MOLT-4
[27] = tested on: KM-20L2
[28] = tested on: XF498
[29] = tested on: NCI-H23
[30] = tested on: SK-OV-3
[31] = tested on: U-251
[32] = tested on: SF-539
[33] = tested on: OVCAR-3
[34] = tested on: SNB-19
[35] = tested on: UO-31
[36] = tested on: OVCAR-5
[37] = tested on: DMS-114
[38] = tested on: HCC 2998
[39] = tested on: HOP-62
[40] = tested on: RPMI-8226
[41] = tested on: 786-0
[42] = tested on: UACC-62
[43] = tested on: HCT-116
[44] = tested on: RXF 393
[45] = tested on: SN12C
[46] = tested on: IGROV-1
[47] = tested on: OVCAR-8
[48] = tested on: A498
[49] = tested on: K562
[50] = tested on: HOP-18
[51] = tested on: SW-620
[52] = tested on: HT-29
[53] = tested on: SF-295
[54] = tested on: A549
[55] = tested on: KM12
[56] = tested on: SK-MEL-5
[57] = tested on: DMS-273
[58] = tested on: SNB-75

With `CCc1cccc(C)c1NC(=O)C(=O)Cc1nc2ccccc2o1` the GI50 [1] was > 100 µM (inactive), the GI50 [2] was > 100 µM (inactive) and the GI50 [3] was > 100 µM (inactive). The GI50 [4] was > 100 µM (inactive), the GI50 [5] was > 100 µM (inactive) and the GI50 [6] was > 100 µM (inactive). The GI50 [7] was > 100 µM (inactive), the GI50 [8] was > 100 µM (inactive) and the GI50 [9] was > 100 µM (inactive). For the same compound, the GI50 [10] was > 100 µM (inactive), the GI50 [11] was > 100 µM (inactive) and the GI50 [12] was > 100 µM (inactive). The GI50 [13] was > 100 µM (inactive), the GI50 [14] was > 100 µM (inactive) and the GI50 [15] was > 100 µM (inactive). The GI50 [16] was > 100 µM (inactive), the GI50 [17] was > 100 µM (inactive) and the GI50 [18] was > 100 µM (inactive). The GI50 [19] was > 100 µM (inactive), the GI50 [20] was > 100 µM (inactive) and the GI50 [21] was > 100 µM (inactive). For the same compound, the GI50 [22] was > 100 µM (inactive), the GI50 [23] was > 100 µM (inactive) and the GI50 [24] was > 100 µM (inactive). The GI50 [25] was over 100 µM, the GI50 [26] was > 100 µM (inactive) and the GI50 [27] was > 100 µM (inactive). For the same compound, the GI50 [28] was > 100 µM (inactive), the GI50 [29] was > 100 µM (inactive) and the GI50 [30] was > 100 µM (inactive). The GI50 [31] was > 100 µM (inactive), the GI50 [32] was > 100 µM (inactive) and the GI50 [33] was > 100 µM (inactive). For the same compound, the GI50 [34] was > 100 µM (inactive), the GI50 [35] was > 100 µM (inactive) and the GI50 [36] was > 100 µM (inactive). For the same compound, the GI50 [37] was > 100 µM (inactive), the GI50 [38] was > 100 µM (inactive) and the GI50 [39] was > 100 µM (inactive). The GI50 [40] was > 100 µM (inactive), the GI50 [41] was > 100 µM (inactive) and the GI50 [42] was > 100 µM (inactive). For the same compound, the GI50 [43] was > 100 µM (inactive), the GI50 [44] was > 100 µM (inactive) and the GI50 [45] was > 100 µM (inactive). For the same compound, the GI50 [46] was > 100 µM (inactive), the GI50 [47] was > 100 µM (inactive) and the GI50 [48] was > 100 µM (inactive). The GI50 [49] was > 100 µM (inactive), the GI50 [50] was > 100 µM (inactive) and the GI50 [51] was > 100 µM (inactive). The GI50 [52] was > 100 µM (inactive) and the GI50 [53] was > 100 µM (inactive).
`O=C(Cc1ccccc1)NN1C(=O)C(Cl)C1c1cc(Br)cc(Br)c1O` (stereo not drawn) was tested, and the GI50 [1] was 14.8 µM (inactive), the GI50 [2] was 7.76 µM (inactive) and the GI50 [3] was 0.794 µM (active). The GI50 [4] was 9.95 µM (inactive), the GI50 [5] was 17.8 µM (inactive) and the GI50 [6] was 6.35 µM (inactive). For the same compound, the GI50 [7] was 13.5 µM (inactive), the GI50 [8] was 17.7 µM (inactive) and the GI50 [9] was 3.63 µM (inactive). For the same compound, the GI50 [10] was 3.8 µM (inactive), the GI50 [11] was 25.8 µM (inactive) and the GI50 [12] was 14.7 µM (inactive). For the same compound, the GI50 [54] was 15.9 µM (inactive), the GI50 [13] was 21.3 µM (inactive) and the GI50 [14] was 24.4 µM (inactive). The GI50 [15] was 11.5 µM (inactive), the GI50 [17] was 8.81 µM (inactive) and the GI50 [18] was 10.3 µM (inactive). The GI50 [19] was 13 µM (inactive), the GI50 [20] was 15.8 µM (inactive) and the GI50 [21] was 2.13 µM (inactive). The GI50 [22] was 3.05 µM (inactive), the GI50 [23] was 3.87 µM (inactive) and the GI50 [24] was 15.1 µM (inactive). For the same compound, the GI50 [25] was 6.79 µM, the GI50 [26] was 2.62 µM (inactive) and the GI50 [27] was 24.7 µM (inactive). The GI50 [28] was 19.8 µM (inactive), the GI50 [29] was 12.2 µM (inactive) and the GI50 [30] was 15.1 µM (inactive). For the same compound, the GI50 [31] was 13 µM (inactive), the GI50 [33] was 2.71 µM (inactive) and the GI50 [34] was 8.34 µM (inactive). The GI50 [35] was 4.11 µM (inactive), the GI50 [55] was 40.1 µM (inactive) and the GI50 [36] was 16.1 µM (inactive). For the same compound, the GI50 [37] was 3.97 µM (inactive), the GI50 [38] was 13.8 µM (inactive) and the GI50 [39] was 14 µM (inactive). The GI50 [40] was 6.81 µM (inactive), the GI50 [41] was 10.1 µM (inactive) and the GI50 [42] was 10.3 µM (inactive). For the same compound, the GI50 [43] was 3.21 µM (inactive), the GI50 [56] was 13.6 µM (inactive) and the GI50 [44] was 17.7 µM (inactive). The GI50 [45] was 21.3 µM (inactive), the GI50 [46] was 13.1 µM (inactive) and the GI50 [47] was 8.87 µM (inactive). The GI50 [49] was 6.44 µM (inactive), the GI50 [50] was 7.83 µM (inactive) and the GI50 [57] was 12.5 µM (inactive). The GI50 [51] was 7.14 µM (inactive), the GI50 [52] was 21.6 µM (inactive) and the GI50 [53] was 12.3 µM (inactive). For the same compound, the GI50 [58] was 16.2 µM (inactive).
